From patent US10906894B2, “Compounds containing benzo[d][1,3]oxathiole, benzo[d][1,3]oxathiole 3-oxide or benzo[d][1,3]oxathiole 3,3-dioxide and methods/uses thereof as agonists of g protein-coupled receptor 119” (PRAMANA PHARMACEUTICALS INC., priority 2016, dated 2021)

Key:
GPR119 [1] = target: T1, GPR119 (Homo sapiens, UniProt Q8TDV5); test: LANCE Ultra cAMP assay: stimulation of GPR119-mediated cAMP production in CHO cells stably expressing human GPR119 receptor; assay type: cell-based; conditions: Table B-2 entries 15-39, modified protocol, 500 cells/well
T1 sequence (Q8TDV5 1-335): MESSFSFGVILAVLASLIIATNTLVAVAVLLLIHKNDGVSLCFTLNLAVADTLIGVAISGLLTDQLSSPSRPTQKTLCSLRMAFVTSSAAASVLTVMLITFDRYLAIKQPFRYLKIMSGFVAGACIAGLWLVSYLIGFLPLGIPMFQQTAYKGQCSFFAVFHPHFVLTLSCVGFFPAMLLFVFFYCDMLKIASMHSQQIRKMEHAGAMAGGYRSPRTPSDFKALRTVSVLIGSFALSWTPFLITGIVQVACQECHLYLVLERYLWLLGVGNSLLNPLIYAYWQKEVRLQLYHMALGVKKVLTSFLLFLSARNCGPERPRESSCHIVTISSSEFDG

GPR119 [2] = target: T1, GPR119; test: PathHunter β-arrestin assay (enzyme fragment complementation, β-galactosidase reporter) monitoring activation of GPR119; assay type: cell-based; design: β-galactosidase enzyme fragment for EFC (by own knowledge the ProLink tag, fused to the receptor's C-terminus in PathHunter lines)
Description: Certain test compounds were evaluated using the PathHunterR β-arrestin assay, which monitors the activation of GPR119 in a homogenous, non-imaging assay format using the enzyme fragment complementation (EFC) technology (DiscoverX Corporation, Fremont, Calif. U.S.A.; www.discoverx.com) with β-galactosidase as the functional reporter.

CCc1cnc(N2CC[C@H](COc3ccc(-c4ccc5c(c4)OC[S@@+]5[O-])cc3)C2)nc1 [Example B-91, (S)-6-(4-(((S)-1-(5-Ethylpyrimidin-2-yl)pyrrolidine-3-yl)methoxy)phenyl)-2H-benzo[d][1,3]oxathiole 3-oxide]
Emax (GPR119 [1]; CHO, read-out: % cAMP Max.): 93%
EC50 (GPR119 [1]): 10.3 nM
EC50 (GPR119 [2]; Table B-3): 222 nM
Emax (GPR119 [2]; Table B-3, read-out: % cAMP Max.): 155%
